In patent US8946299B2, “Use of calixarenes associated with an antibiotic in the treatment of bacterial infections” (Universite de Lorraine, priority 2011, dated 2015):
Values belong to the compound of their own block, whether it stands above or below them.

Tests used:
[1] = system: Escherichia coli, Staphylococcus aureus and Pseudomonas aeruginosa strains; assay: Chessboard technique, summary over all strains and combinations tested; type: cell-based
Excerpt: (§1) Three reference strains were used, corresponding to those studied for the MICs and MBCs (Minimum Bactericidal Concentration): Escherichia coli ATCC 25922, Staphylococcus aureus ATCC 29213, Pseudomonas aeruginosa ATCC 27853. For each of these strains 3 corresponding clinical isolates were chosen, having various antibiotic-resistance profiles, routinely used in standard fashion: • EcR1, EcR2, EcR3; • SaR1, SaR3, SaR4; • PaR2, PaR3, PaR5.
(§2) 1.3. Procedure: Chessboard Technique
The FIC (Fractional Inhibitory Concentration Index) value is determined by the following formula: […]
(§3) For each strain and each antibiotic/Cx1 combination, the experiments were repeated a minimum of 3 times.

[2] = system: Pseudomonas aeruginosa strain having a resistance to β-lactams (including the carbapenems), aminoglycosides, the trimethoprim-sulphamethoxazole combination and …; assay: Chessboard technique: MICs alone and synergism of Cx1 combinations; type: cell-based; settings: antibiotic used alone; second figure of the cell; n = 4
Excerpt: as §1, §2
(§4) The bacterial suspension is transferred to a 15 mL Falcon tube, centrifuged for 10 min at 4500 g, then the pellet is re-suspended in 1 mL of sterile distilled water. Suitable dilutions are then prepared in order to obtain a bacterial inoculum between 5·10^5 and 5·10^6 CFU/mL.
(§5) The MICs of the antibiotics were previously determined for each strain, by the method of microdilution in a liquid medium (CLSI (Clinical and Laboratory Standards Institute), 2003).
(§6) The same procedure is followed for the Cx1. […] Thus 64 ATB/Cx1 combinations are obtained.
(§7) The final volume contained in each of the wells must be 100 μL. Two controls must be present on each plate: • column 1 and 12: medium control • column 2 and 11: medium+bacteria control
(§8) Cx1: […] in the wells of […], starting with the lowest concentration.
(§9) ATB: 25 μL in the wells of rows H to A (columns 3 to 11), starting with the lowest concentration.
(§10) 50 μL in each of the wells of columns 2 to 11.
(§11) D2: Reading the Turbidity at 540 Nm.
(§12) The FIC (Fractional Inhibitory Concentration Index) value is determined by the following formula:
(§13) [formula] MICA in combination MICA alone MICB in combination MICB alone
(§14) When FIC≦0.5, there is a synergistic effect between antibiotic A and antibiotic B.
(§15) When 0.5<FIC≦1, there is an additive effect between antibiotic A and antibiotic B.
(§16) When 1<FIC≦4, there is an indifferent effect between antibiotic A and antibiotic B.
(§17) When FIC>4, there is an antagonistic effect between antibiotic A and antibiotic B.
as §3

[3] = system: Pseudomonas aeruginosa strain ATCC 27853 (wild type); assay: as above; type: cell-based; settings: antibiotic used alone; second figure of the cell; n = 4
Excerpt: as §1, §2, §4, §5, §6, §7, §8, §9, §10, §11, §12, §13, §14, §15, §16, §17, §3

[4] = system: Staphylococcus aureus strain ATCC 29213 (wild type); assay: as above; type: cell-based; settings: antibiotic used alone; second figure of the cell; n = 4
Excerpt: as §1, §2, §4, §5, §6, §7, §8, §9, §10, §11, §12, §13, §14, §15, §16, §17, §3

[5] = system: mucoid strain of Pseudomonas aeruginosa having a resistance to rifampicin and the trimethoprim-sulphamethoxazole combination (PaR5); assay: as above; type: cell-based; settings: antibiotic used alone; second figure of the cell; n = 4
Excerpt: as §1, §2, §4, §5, §6, §7, §8, §9, §10, §11, §12, §13, §14, §15, §16, §17, §3

[6] = system: MRSA strain having a resistance to the aminoglycosides, fluoroquinolones, macrolides-lincosamides-synergistins and ofloxacin (SaR4); assay: as above; type: cell-based, Staphylococcus aureus; settings: antibiotic used alone; second figure of the cell; n = 4
Excerpt: as §1, §2, §4, §5, §6, §7, §8, §9, §10, §11, §12, §13, §14, §15, §16, §17, §3

[7] = system: MRSA strain having a resistance to the aminoglycosides and fluoroquinolones (SaR3); assay: as above; type: cell-based, Staphylococcus aureus; settings: antibiotic used alone; second figure of the cell; n = 4
Excerpt: as §1, §2, §4, §5, §6, §7, §8, §9, §10, §11, §12, §13, §14, §15, §16, §17, §3

[8] = system: MRSA strain without associated resistance (SaR1); assay: as above; type: cell-based, Staphylococcus aureus; settings: antibiotic used alone; second figure of the cell; n = 4
Excerpt: as §1, §2, §4, §5, §6, §7, §8, §9, §10, §11, §12, §13, §14, §15, §16, §17, §3

[9] = system: EcR1: Penicillinase-Producing Escherichia coli without Associated Resistance; assay: Antibiogram by the disk diffusion technique; type: cell-based; settings: for Results (diameter): Table A1, category from diameter vs Dmin Dmax
Method: (§18) 5. Identification and Antibiogram 5.1 EcR1: Penicillinase-Producing Escherichia coli without Associated Resistance
(§19) The bacterial and antibiogram identification is carried out by the VITEK 2 system (bioMérieux) and by the disk diffusion technique.

[10] = system: Pseudomonas aeruginosa strain having a resistance to β-lactams, the trimethoprim-sulphamethoxazole combination and fosfomycin (PaR2); type: cell-based; settings: antibiotic used alone; second figure of the cell; n = 4
Excerpt: as §1, §2, §4, §5, §6, §7, §8, §9, §10, §11, §12, §13, §14, §15, §16, §17, §3

[11] = system: EcR2: Cephalosporinase-Hyperproducing Escherichia coli; assay: Antibiogram by the disk diffusion technique; type: cell-based; settings: Table B2; strain EcR2; diameters
Method: 5.2 EcR2: Cephalosporinase-Hyperproducing Escherichia coli Having an Associated Resistance to the Aminoglycosides, Quinolones and the Trimethoprim-Sulphamethoxazole Combination
The bacterial and antibiogram identification is carried out by the VITEK 1 system (bioMérieux) and by the disk diffusion technique

[12] = system: EcR1: Penicillinase-Producing Escherichia coli without Associated Resistance; assay: Antibiogram, MIC by the VITEK 2 system; type: cell-based; settings: Table A1, category from MIC
Method: as §18, §19

[13] = system: ESBL-producing strain of Escherichia coli (EcR3); assay: Chessboard technique: MICs alone and synergism of Cx1 combinations; type: cell-based; settings: antibiotic used alone; second figure of the cell; n = 4
Excerpt: as §1, §2, §4, §5, §6, §7, §8, §9, §10, §11, §12, §13, §14, §15, §16, §17, §3

[14] = system: cephalosporinase-hyperproducing strain of Escherichia coli (EcR2); assay: as above; type: cell-based; settings: antibiotic used alone; second figure of the cell; n = 4
Excerpt: as §1, §2, §4, §5, §6, §7, §8, §9, §10, §11, §12, §13, §14, §15, §16, §17, §3

[15] = system: Escherichia coli strain ATCC 25922 (wild type); assay: as above; type: cell-based; settings: antibiotic used alone; second figure of the cell; n = 4
Excerpt: as §1, §2, §4, §5, §6, §7, §8, §9, §10, §11, §12, §13, §14, §15, §16, §17, §3

SMILES: C[C@@H]1O[C@@H]1P(=O)(O)O [Fosfomycin]
nature of the interaction between Cx1 and the antibiotic [1]: synergism
MIC (antibiotic) [2]: > 64 mg/L
MIC (antibiotic) [3]: 16 µg/mL
Initials MIC (antibiotic) [4]: 8/8 mg/L
MIC (antibiotic) [5]: 16 µg/mL
MIC (antibiotic) [6]: 128 µg/mL
MIC (antibiotic) [7]: 16 µg/mL
MIC (antibiotic) [8]: 2 µg/mL
Results (diameter) [9]: Susceptible
diameter in mm ([9]; Table A2, diameter): 24 mm
MIC (antibiotic) [10]: 64 µg/mL

SMILES: C[C@@H](O)[C@H]1C(=O)N2C(C(=O)O)=C(SCCN=CN)C[C@H]12 [Imipenem]
MIC (antibiotic) [2]: 32/32 mg/L
MIC (antibiotic) [3]: 2 µg/mL
MIC (antibiotic) [5]: 2 µg/mL
MIC (antibiotic) [6]: 2 µg/mL
MIC (antibiotic) [10]: 2 µg/mL

SMILES: NCC[C@H](O)C(=O)N[C@@H]1C[C@H](N)[C@@H](O[C@H]2O[C@H](CN)[C@@H](O)[C@H](O)[C@H]2O)[C@H](O)[C@H]1O[C@H]1O[C@H](CO)[C@@H](O)[C@H](N)[C@H]1O [Amikacin]
MIC (antibiotic) [2]: 1 mg/L
MIC (antibiotic) [3]: 0.5 µg/mL
Initials MIC (antibiotic) [4]: 1 mg/L
MIC (antibiotic) [5]: 0.5 µg/mL
Initial MICs (antibiotic) [13]: 1 mg/L
Results (MIC) [12]: Susceptible
Results (diameter) [9]: Susceptible
MIC (antibiotic) [10]: 1 µg/mL

SMILES: CO/N=C(\C(=O)N[C@@H]1C(=O)N2C(C(=O)O)=C(COC(C)=O)CS[C@H]12)c1csc(N)n1 [Cefotaxime]
diameter in mm [11]: 24 mm
Initial MICs (antibiotic) [14]: 4 mg/L
Initial MICs (antibiotic) [13]: 128 mg/L
Results (MIC) [12]: Susceptible
Results (diameter) [9]: Susceptible

SMILES: CCn1cc(C(=O)O)c(=O)c2ccc(C)nc21 [Nalidixic acid]
Results (MIC) [12]: Susceptible

SMILES: O=C(O)c1cn(C2CC2)c2cc(N3CCNCC3)c(F)cc2c1=O [Ciprofloxacin]
Results (diameter) [9]: Susceptible

SMILES: CC1(C)S[C@@H]2[C@H](NC(=O)[C@H](N)c3ccc(O)cc3)C(=O)N2[C@H]1C(=O)O [Amoxicillin]
Initial MICs (antibiotic) [14]: 256 mg/L
Initial MICs (antibiotic) [15]: 4/4 mg/L
Results (MIC) [12]: Resistant
Results (diameter) [9]: Resistant

The next lines start with results.

Initials MIC (antibiotic) [4]: 2 mg/L
MIC (antibiotic) [6]: 4 µg/mL
SMILES: CC(=O)O[C@H]1C[C@@]2(C)[C@@H](C[C@@H](O)[C@H]3[C@@]4(C)CC[C@@H](O)[C@@H](C)[C@@H]4CC[C@@]32C)/C1=C(\CCC=C(C)C)C(=O)O [Fusidic acid]
nature of the interaction between Cx1 and the antibiotic [1]: synergism

Results (MIC) [12]: Susceptible
SMILES: CO[C@@]1(NC(=O)Cc2cccs2)C(=O)N2C(C(=O)O)=C(COC(N)=O)CS[C@@H]21 [Cefoxitin]
diameter in mm [11]: 11 mm
Results (diameter) [9]: Susceptible

Results (MIC) [12]: Susceptible
SMILES: CCN[C@@H]1C[C@H](N)[C@@H](O[C@H]2OC(CN)=CC[C@H]2N)[C@H](O)[C@H]1O[C@H]1OC[C@](C)(O)[C@H](NC)[C@H]1O [Netilmicin]
Results (diameter) [9]: Susceptible

Initials MIC (antibiotic) [4]: 4 mg/L
MIC (antibiotic) [6]: 4 µg/mL
MIC (antibiotic) [7]: 4 µg/mL
MIC (antibiotic) [8]: 4 µg/mL
SMILES: [H]/N=C(/N)N[C@H]1[C@H](O)[C@@H](O)[C@H](O[C@@H]2O[C@@H](C)[C@](O)(C=O)[C@H]2O[C@@H]2O[C@@H](CO)[C@H](O)[C@@H](O)[C@@H]2NC)[C@@H](N/C(N)=N\[H])[C@@H]1O [Streptomycin]
nature of the interaction between Cx1 and the antibiotic [1]: synergism
